The target of test [1] is T1, T167A Rho-MatB (Rhodopseudomonas palustris, UniProt Q6ND88, C106A/K488A/Q457C/R286C/T167A).
T1 construct: His6-tag, Rho-MatB background, two tetramethylrhodamines (5-IATR)
Description: Fluorescence titration (excitation 553 nm, emission 571 nm) of 0.5 µM fully purified Rho-MatB with ADP in 50 mM Hepes pH 7.0, 100 mM NaCl, 10 mM MgCl2, 0.3 mg/ml BSA, 20°C, quadratic binding fit. From the text: (§1) Data from titrations to measure nucleotide binding were corrected for dilution and analyzed with a quadratic binding curve using Grafit software: F=Fmin+(Fmax−Fmin)×(Kd+L+P−(Kd+L+P)^2−4×P×L)/2×P where P and L are the total concentrations of protein and ligand, respectively, Kd is the dissociation constant, and Fmin and Fmax are the fluorescence intensities of the free and ligand- bound protein, respectively.
(§2) Fig 2 Nucleotide affinity for variants of Rho-MatB. Titration of ATP (circles) and ADP (triangles) to (A) 0.5 µM Rho-MatB T167A, (B) 0.5 μM Rho-MatB T303A; (C) 0.5 μM Rho-MatB S170A. Measurements are shown for one representative experiment and were in 50 mM Hepes pH 7.0, 100 mM NaCl, 10 mM MgCl2, 0.3 mg ml^-1 bovine serum albumin at 20°C. Excitation was at 553 nm, emission at 571 nm. The dissociation constants and fluorescence ratios were obtained using a quadratic binding equation (see Methods) and are listed in Table 2. The drop lines are to indicate the dissociation constants. Data are normalized to the intensity in the absence of nucleotide.
(§3) The affinity for ATP and ADP was determined by measuring the fluorescence at different concentrations of the nucleotide (Fig 2A and 2B). Both variants show similar fluorescent changes with ATP compared to the parent Rho-MatB, but the dissociation constants (Kd) are much higher (Table 2). In contrast, the affinity of ADP was much less affected by the mutations, remaining very weak (Table 2). The change in ATP affinity presumably reflects the importance of hydrogen-bonding interactions with the triphosphate, decreased by mutating to alanine.

Test [2] concerns the target T2, Parent (Rho-MatB) (Rhodopseudomonas palustris, UniProt Q6ND88, C106A/K488A/Q457C/R286C).
T2 construct: N-terminal His6-tag, expressed in E. coli; two tetramethylrhodamines (5-IATR) on introduced cysteines
The test is described as above.
Description: as §1, §2, §3

The target in test [3] is T3, T303A Rho-MatB (Rhodopseudomonas palustris, UniProt Q6ND88, C106A/K488A/Q457C/R286C/T303A).
T3 construct: His6-tag, Rho-MatB background, two tetramethylrhodamines (5-IATR)
The description is as above.
Description: as §1, §2, §3

Test [4] addresses T4, S170A Rho-MatB (Rhodopseudomonas palustris, UniProt Q6ND88, C106A/K488A/Q457C/R286C/S170A).
T4 construct: His6-tag, Rho-MatB background, two tetramethylrhodamines (5-IATR)
Described as above.
Description: as §1, §2, §3

The target in test [5] is T1, T167A Rho-MatB. The test is described as follows: Fluorescence titration (excitation 553 nm, emission 571 nm) of 0.5 µM fully purified Rho-MatB with ATP in 50 mM Hepes pH 7.0, 100 mM NaCl, 10 mM MgCl2, 0.3 mg/ml BSA, 20°C, quadratic binding fit.
Description: as §1, §2, §3

The target in test [6] is T2, Parent (Rho-MatB). Described as above.
Description: as §1, §2, §3

Test [7] has as its target T3, T303A Rho-MatB. The description is as above.
Description: as §1, §2, §3

The target in test [8] is T4, S170A Rho-MatB. Described as above.
Description: as §1, §2, §3

Test [9] has as its target T1, T167A Rho-MatB. The test is described as follows: Survey fluorescence titration of tetramethylrhodamine-labelled MatB variants with ATP in 50 mM Tris.HCl pH 7.5, 150 mM NaCl, 10 mM MgCl2, 0.3 mg/ml BSA, 20°C, without full optimization of labelling and purification. The test is classed as binding. How it is done:
as §1
(§4) The labeled proteins were then tested for a fluorescence change upon ATP binding in the presence of Mg^2+ (Table 1). For variants showing a significant fluorescence change, the affinity for ATP was determined by titration (Table 1).

In another test the target is T5, T163A Rho-MatB (Rhodopseudomonas palustris, UniProt Q6ND88, C106A/K488A/Q457C/R286C/T163A).
T5 construct: His6-tag, Rho-MatB background, two tetramethylrhodamines (5-IATR)
The test is described as above. The format is binding. How it is done: as §1, §4

Test [10] addresses T2, Parent (Rho-MatB). Described as above. The test is classed as binding. How it is done:
as §1, §4

The target of test [11] is T3, T303A Rho-MatB. The test is described as above. The format is binding. As to the method: as §1, §4
Another test deals with T6, M302A Rho-MatB (Rhodopseudomonas palustris, UniProt Q6ND88, C106A/K488A/M302A/Q457C/R286C).
T6 construct: His6-tag, Rho-MatB background, two tetramethylrhodamines (5-IATR)
The description is as above. The format is binding. How it is done: as §1, §4

Another test addresses T7, R169A Rho-MatB (Rhodopseudomonas palustris, UniProt Q6ND88, C106A/K488A/Q457C/R169A/R286C).
T7 construct: His6-tag, Rho-MatB background, two tetramethylrhodamines (5-IATR)
The test is described as above. The format is binding. As to the method: as §1, §4

The target in a further test is T8, T166A Rho-MatB (Rhodopseudomonas palustris, UniProt Q6ND88, C106A/K488A/Q457C/R286C/T166A).
T8 construct: His6-tag, Rho-MatB background, two tetramethylrhodamines (5-IATR)
The test is described as above. The test is classed as binding. As to the method:
as §1, §4

The next test deals with T9, T303S Rho-MatB (Rhodopseudomonas palustris, UniProt Q6ND88, C106A/K488A/Q457C/R286C/T303S).
T9 construct: His6-tag, Rho-MatB background, two tetramethylrhodamines (5-IATR)
Described as above. The format is binding. How it is done: as §1, §4

The target of a further test is T10, Q490A Rho-MatB (Rhodopseudomonas palustris, UniProt Q6ND88, C106A/K488A/Q457C/Q490A/R286C).
T10 construct: His6-tag, Rho-MatB background, two tetramethylrhodamines (5-IATR)
The test is described as above. The test is classed as binding. As to the method:
as §1, §4

Another test deals with T11, T167S Rho-MatB (Rhodopseudomonas palustris, UniProt Q6ND88, C106A/K488A/Q457C/R286C/T167S).
T11 construct: His6-tag, Rho-MatB background, two tetramethylrhodamines (5-IATR)
The description is as above. The format is binding. As to the method:
as §1, §4

The next test deals with T12, Y300A Rho-MatB (Rhodopseudomonas palustris, UniProt Q6ND88, C106A/K488A/Q457C/R286C/Y300A).
T12 construct: His6-tag, Rho-MatB background, two tetramethylrhodamines (5-IATR)
The description is as above. The format is binding. How it is done: as §1, §4

The target in another test is T13, T208A Rho-MatB (Rhodopseudomonas palustris, UniProt Q6ND88, C106A/K488A/Q457C/R286C/T208A).
T13 construct: His6-tag, Rho-MatB background, two tetramethylrhodamines (5-IATR)
Described as above. The test is classed as binding. How it is done:
as §1, §4

Another test has as its target T14, S164A Rho-MatB (Rhodopseudomonas palustris, UniProt Q6ND88, C106A/K488A/Q457C/R286C/S164A).
T14 construct: His6-tag, Rho-MatB background, two tetramethylrhodamines (5-IATR)
The test is described as above. The format is binding. As to the method:
as §1, §4

A further test addresses T15, H207A Rho-MatB (Rhodopseudomonas palustris, UniProt Q6ND88, C106A/H207A/K488A/Q457C/R286C).
T15 construct: His6-tag, Rho-MatB background, two tetramethylrhodamines (5-IATR)
The test is described as above. The test is classed as binding. As to the method: as §1, §4

For another test, the target named is T16, R299A Rho-MatB (Rhodopseudomonas palustris, UniProt Q6ND88, C106A/K488A/Q457C/R286C/R299A).
T16 construct: His6-tag, Rho-MatB background, two tetramethylrhodamines (5-IATR)
The description is as above. The test is classed as binding. How it is done: as §1, §4

Test [12] concerns the target T4, S170A Rho-MatB. The description is as above. The format is binding. How it is done:
as §1, §4

T2 sequence (Q6ND88 entry or part of it C106A/R286C/Q457C/K488A): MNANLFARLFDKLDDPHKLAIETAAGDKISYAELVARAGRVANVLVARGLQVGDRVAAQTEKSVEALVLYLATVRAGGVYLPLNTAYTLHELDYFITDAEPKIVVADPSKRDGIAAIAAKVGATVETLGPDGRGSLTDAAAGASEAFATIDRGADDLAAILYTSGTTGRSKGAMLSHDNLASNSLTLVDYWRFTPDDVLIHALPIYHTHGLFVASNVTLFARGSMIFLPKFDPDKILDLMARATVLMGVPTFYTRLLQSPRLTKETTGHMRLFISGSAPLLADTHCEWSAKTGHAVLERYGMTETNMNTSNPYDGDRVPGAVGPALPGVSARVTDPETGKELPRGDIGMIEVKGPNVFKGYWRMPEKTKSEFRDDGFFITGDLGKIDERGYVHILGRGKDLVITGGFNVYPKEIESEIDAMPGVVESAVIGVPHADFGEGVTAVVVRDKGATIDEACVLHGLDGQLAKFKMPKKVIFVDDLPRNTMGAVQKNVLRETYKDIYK
T3 sequence (Q6ND88 entry or part of it C106A/R286C/T303A/Q457C/K488A): as the sequence (Q6ND88 entry or part of it C106A/R286C/Q457C/K488A) above, with T303A counted along it
T4 sequence (Q6ND88 entry or part of it C106A/S170A/R286C/Q457C/K488A): as the sequence (Q6ND88 entry or part of it C106A/R286C/Q457C/K488A) above, with S170A counted along it
T1 sequence (Q6ND88 entry or part of it C106A/T167A/R286C/Q457C/K488A): as the sequence (Q6ND88 entry or part of it C106A/R286C/Q457C/K488A) above, with T167A counted along it
T12 sequence (Q6ND88 entry or part of it C106A/R286C/Y300A/Q457C/K488A): as the sequence (Q6ND88 entry or part of it C106A/R286C/Q457C/K488A) above, with Y300A counted along it
T15 sequence (Q6ND88 entry or part of it C106A/H207A/R286C/Q457C/K488A): as the sequence (Q6ND88 entry or part of it C106A/R286C/Q457C/K488A) above, with H207A counted along it
T10 sequence (Q6ND88 entry or part of it C106A/R286C/Q457C/K488A/Q490A): as the sequence (Q6ND88 entry or part of it C106A/R286C/Q457C/K488A) above, with Q490A counted along it
T6 sequence (Q6ND88 entry or part of it C106A/R286C/M302A/Q457C/K488A): as the sequence (Q6ND88 entry or part of it C106A/R286C/Q457C/K488A) above, with M302A counted along it
T16 sequence (Q6ND88 entry or part of it C106A/R286C/R299A/Q457C/K488A): as the sequence (Q6ND88 entry or part of it C106A/R286C/Q457C/K488A) above, with R299A counted along it
T8 sequence (Q6ND88 entry or part of it C106A/T166A/R286C/Q457C/K488A): as the sequence (Q6ND88 entry or part of it C106A/R286C/Q457C/K488A) above, with T166A counted along it
T5 sequence (Q6ND88 entry or part of it C106A/T163A/R286C/Q457C/K488A): as the sequence (Q6ND88 entry or part of it C106A/R286C/Q457C/K488A) above, with T163A counted along it
T7 sequence (Q6ND88 entry or part of it C106A/R169A/R286C/Q457C/K488A): as the sequence (Q6ND88 entry or part of it C106A/R286C/Q457C/K488A) above, with R169A counted along it
T11 sequence (Q6ND88 entry or part of it C106A/T167S/R286C/Q457C/K488A): as the sequence (Q6ND88 entry or part of it C106A/R286C/Q457C/K488A) above, with T167S counted along it
T13 sequence (Q6ND88 entry or part of it C106A/T208A/R286C/Q457C/K488A): as the sequence (Q6ND88 entry or part of it C106A/R286C/Q457C/K488A) above, with T208A counted along it
T14 sequence (Q6ND88 entry or part of it C106A/S164A/R286C/Q457C/K488A): as the sequence (Q6ND88 entry or part of it C106A/R286C/Q457C/K488A) above, with S164A counted along it
T9 sequence (Q6ND88 entry or part of it C106A/R286C/T303S/Q457C/K488A): as the sequence (Q6ND88 entry or part of it C106A/R286C/Q457C/K488A) above, with T303S counted along it

On to `Nc1ncnc2c1ncn2[C@@H]1O[C@H](COP(=O)(O)OP(=O)(O)O)[C@@H](O)[C@H]1O` [ADP, adenosine 5'-diphosphate], for which the Kd on T167A Rho-MatB [1] is 900 ± 28 µM; at Parent (Rho-MatB) [2], 428 ± 50 µM; on T303A Rho-MatB [3], 1840 ± 114 µM; at S170A Rho-MatB [4] it was 887 ± 25 µM.
With `Nc1ncnc2c1ncn2[C@@H]1O[C@H](COP(=O)(O)OP(=O)(O)OP(=O)(O)O)[C@@H](O)[C@H]1O` [ATP, adenosine 5'-triphosphate], the Kd on T167A Rho-MatB [5] is 123 ± 4 µM; on Parent (Rho-MatB) [6], 6.4 ± 0.6 µM; on T303A Rho-MatB [7], 42 ± 2 µM; on S170A Rho-MatB [8], 3.8 ± 0.1 µM; on T167A Rho-MatB [9], 149 ± 7 µM; at T163A Rho-MatB, 297 ± 27 µM. For the same compound, the Kd at Parent (Rho-MatB) [10] stood at 8.8 ± 0.3 µM; on T303A Rho-MatB [11], 42 ± 1 µM; on M302A Rho-MatB, 50 ± 5 µM; on R169A Rho-MatB it was 33 ± 1 µM; on T166A Rho-MatB, 156 ± 7 µM; on T303S Rho-MatB, 56 ± 3 µM. Besides, the Kd at Q490A Rho-MatB was determined as 66 ± 3 µM; at T167S Rho-MatB it was 52 ± 1 µM; on Y300A Rho-MatB, 11.1 ± 0.5 µM; at T208A Rho-MatB, 52 ± 5 µM; on S164A Rho-MatB, 17.4 ± 0.4 µM; on H207A Rho-MatB, 224 ± 18 µM. The values for the Kd on R299A Rho-MatB and at S170A Rho-MatB [12] were 2.4 ± 0.1 µM and 4 ± 0.1 µM, respectively.

Broadly, the Kd is the concentration at which binding is half-saturated.
